Test results as given in ChEMBL document CHEMBL1147919, “Syntheses and binding affinities of 6-nitroquipazine analogues for serotonin transporter. Part 5: 2'-Substituted 6-nitroquipazines” (Bioorg Med Chem, 2007).

Molecular target: Sodium-dependent serotonin transporter (Rattus norvegicus, UniProt P31652)
Test: Displacement of [3H]citalopram from Sprague-Dawley rat SERT

Sequence of Sodium-dependent serotonin transporter (P31652 whole entry): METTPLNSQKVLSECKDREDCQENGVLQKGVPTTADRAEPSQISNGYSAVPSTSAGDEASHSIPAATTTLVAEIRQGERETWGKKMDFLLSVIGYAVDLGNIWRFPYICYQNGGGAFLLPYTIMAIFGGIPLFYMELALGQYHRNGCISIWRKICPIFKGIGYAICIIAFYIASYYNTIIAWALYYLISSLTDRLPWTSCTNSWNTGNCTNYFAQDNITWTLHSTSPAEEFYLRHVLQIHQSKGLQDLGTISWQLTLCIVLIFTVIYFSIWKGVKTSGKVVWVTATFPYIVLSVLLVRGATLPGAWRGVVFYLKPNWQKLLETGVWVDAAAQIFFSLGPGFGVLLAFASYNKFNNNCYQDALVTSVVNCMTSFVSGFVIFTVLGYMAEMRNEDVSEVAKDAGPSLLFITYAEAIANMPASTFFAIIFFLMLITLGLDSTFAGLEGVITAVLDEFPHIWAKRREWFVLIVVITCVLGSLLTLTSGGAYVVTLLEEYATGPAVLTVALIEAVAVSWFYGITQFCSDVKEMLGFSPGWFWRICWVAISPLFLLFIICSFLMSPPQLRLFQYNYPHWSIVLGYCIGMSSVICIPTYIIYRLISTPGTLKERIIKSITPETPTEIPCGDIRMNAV

Compound | Ki [nM]
COCC1CNCCN1c1ccc2cc([N+](=O)[O-])ccc2n1 (stereo unspecified) | 0.68
CCCOCC1CNCCN1c1ccc2cc([N+](=O)[O-])ccc2n1 (stereo unspecified) | 5.67
CCOCC1CNCCN1c1ccc2cc([N+](=O)[O-])ccc2n1 (stereo unspecified) | 0.43
CCCCOCC1CNCCN1c1ccc2cc([N+](=O)[O-])ccc2n1 (stereo unspecified) | 15.4
O=[N+]([O-])c1ccc2nc(N3CCNCC3CO)ccc2c1 (stereo unspecified) | 0.43
O=[N+]([O-])c1ccc2nc(N3CCNCC3)ccc2c1 [6-NITROQUIPAZINE] | 0.24
